# Results: patent US20260069588A1, “VEPDEGESTRANT FOR USE IN TREATING CANCER” (Arvinas Operation, Inc., priority 2022, published 2026)
# Assay: Phase 1 single agent studies in Japanese and Chinese participants (C4891016, C4891018): adverse events
# [1] = TEAE treatment related, 200 mg, N = 15
# Description: TEAE's from participants in both studies have been combined and are described below.
compound,measurement,setting,value
"O=C1CC[C@H](N2Cc3cc(N4CCN(CC5CCN(c6ccc([C@@H]7c8ccc(O)cc8CC[C@@H]7c7ccccc7)cc6)CC5)CC4)ccc3C2=O)C(=O)N1 [Compound A, (S)-3-(5-(4-((1-(4-((1R,2S)-6-hydroxy-2-phenyl-1,2,3,4-tetrahydronaphthalen-1-yl)phenyl)piperidin-4-yl)methyl)piperazin-1-yl)-1-oxoisoindolin-2-yl)piperidine-2,6-dione]",participants with a TRAE,200 mg,11 of 15 participants
same,participants with a TEAE,"200 mg, 15 evaluable",73.3%
same,participants with grade 3-4 TEAE,"200 mg, 15 evaluable",33.4%
same,TEAE Alanine aminotransferase increased,"200 mg, N=15",26.7%
same,TEAE anemia,"200 mg, N=15",40.0%
same,TEAE electrocardiogram QT prolonged,"200 mg, N=15",33.3%
same,"TEAEs constipation, hyperuricemia, hypokalaemia, neutrophil count decreased, each","200 mg, N=15",20.0%
same,"TRAEs alanine aminotransferase increased and electrocardiogram QT prolonged, each","200 mg, N=15",20.0%
same,"TRAEs aspartate aminotransferase increased, constipation, hyperuricemia, neutrophil count decreased, each","200 mg, N=15",13.3%
same,SAEs,"3 participants, 6 Jun 2023",3 SAEs
same,"Abdominal discomfort, Grade 1",[1],1 (6.7) n (%)
same,"Abdominal discomfort, Grade 2",[1],0 n (%)
same,"Abdominal discomfort, Grade 3",[1],0 n (%)
same,"Abdominal discomfort, Grade 4",[1],0 n (%)
same,"Abdominal discomfort, Grade 5",[1],0 n (%)
same,"Abdominal discomfort, Missing or Unknown",[1],0 n (%)
same,"Abdominal discomfort, Total",[1],1 (6.7) n (%)
same,"Alanine aminotransferase increased, Grade 1",[1],3 (20.0) n (%)
same,"Alanine aminotransferase increased, Grade 2",[1],0 n (%)
same,"Alanine aminotransferase increased, Grade 3",[1],0 n (%)
same,"Alanine aminotransferase increased, Grade 4",[1],0 n (%)
same,"Alanine aminotransferase increased, Grade 5",[1],0 n (%)
same,"Alanine aminotransferase increased, Missing or Unknown",[1],0 n (%)
same,"Alanine aminotransferase increased, Total",[1],3 (20.0) n (%)
same,"Alopecia, Grade 1",[1],1 (6.7) n (%)
same,"Alopecia, Grade 2",[1],0 n (%)
same,"Alopecia, Grade 3",[1],0 n (%)
same,"Alopecia, Grade 4",[1],0 n (%)
same,"Alopecia, Grade 5",[1],0 n (%)
same,"Alopecia, Missing or Unknown",[1],0 n (%)
same,"Alopecia, Total",[1],1 (6.7) n (%)
same,"Anemia, Grade 1",[1],0 n (%)
same,"Anemia, Grade 2",[1],1 (6.7) n (%)
same,"Anemia, Grade 3",[1],0 n (%)
same,"Anemia, Grade 4",[1],0 n (%)
same,"Anemia, Grade 5",[1],0 n (%)
same,"Anemia, Missing or Unknown",[1],0 n (%)
same,"Anemia, Total",[1],1 (6.7) n (%)
same,"Arthralgia, Grade 1",[1],1 (6.7) n (%)
same,"Arthralgia, Grade 2",[1],0 n (%)
same,"Arthralgia, Grade 3",[1],0 n (%)
same,"Arthralgia, Grade 4",[1],0 n (%)
same,"Arthralgia, Grade 5",[1],0 n (%)
same,"Arthralgia, Missing or Unknown",[1],0 n (%)
same,"Arthralgia, Total",[1],1 (6.7) n (%)
same,"Aspartate aminotransferase increased, Grade 1",[1],2 (13.3) n (%)
same,"Aspartate aminotransferase increased, Grade 2",[1],0 n (%)
same,"Aspartate aminotransferase increased, Grade 3",[1],0 n (%)
same,"Aspartate aminotransferase increased, Grade 4",[1],0 n (%)
same,"Aspartate aminotransferase increased, Grade 5",[1],0 n (%)
same,"Aspartate aminotransferase increased, Missing or Unknown",[1],0 n (%)
same,"Aspartate aminotransferase increased, Total",[1],2 (13.3) n (%)
same,"Bilirubin conjugated increased, Grade 1",[1],0 n (%)
same,"Bilirubin conjugated increased, Grade 2",[1],1 (6.7) n (%)
same,"Bilirubin conjugated increased, Grade 3",[1],0 n (%)
same,"Bilirubin conjugated increased, Grade 4",[1],0 n (%)
same,"Bilirubin conjugated increased, Grade 5",[1],0 n (%)
same,"Bilirubin conjugated increased, Missing or Unknown",[1],0 n (%)
same,"Bilirubin conjugated increased, Total",[1],1 (6.7) n (%)
same,"Blood and lymphatic system disorders, Grade 1",[1],0 n (%)
same,"Blood and lymphatic system disorders, Grade 2",[1],1 (6.7) n (%)
same,"Blood and lymphatic system disorders, Grade 3",[1],0 n (%)
same,"Blood and lymphatic system disorders, Grade 4",[1],0 n (%)
same,"Blood and lymphatic system disorders, Grade 5",[1],0 n (%)
same,"Blood and lymphatic system disorders, Missing or Unknown",[1],0 n (%)
same,"Blood and lymphatic system disorders, Total",[1],1 (6.7) n (%)
same,"Blood bilirubin increased, Grade 1",[1],0 n (%)
same,"Blood bilirubin increased, Grade 2",[1],1 (6.7) n (%)
same,"Blood bilirubin increased, Grade 3",[1],0 n (%)
same,"Blood bilirubin increased, Grade 4",[1],0 n (%)
same,"Blood bilirubin increased, Grade 5",[1],0 n (%)
same,"Blood bilirubin increased, Missing or Unknown",[1],0 n (%)
same,"Blood bilirubin increased, Total",[1],1 (6.7) n (%)
same,"Blood bilirubin unconjugated increased, Grade 1",[1],1 (6.7) n (%)
same,"Blood bilirubin unconjugated increased, Grade 2",[1],0 n (%)
same,"Blood bilirubin unconjugated increased, Grade 3",[1],0 n (%)
same,"Blood bilirubin unconjugated increased, Grade 4",[1],0 n (%)
same,"Blood bilirubin unconjugated increased, Grade 5",[1],0 n (%)
same,"Blood bilirubin unconjugated increased, Missing or Unknown",[1],0 n (%)
same,"Blood bilirubin unconjugated increased, Total",[1],1 (6.7) n (%)
same,"Cardiac disorders, Grade 1",[1],1 (6.7) n (%)
same,"Cardiac disorders, Grade 2",[1],0 n (%)
same,"Cardiac disorders, Grade 3",[1],0 n (%)
same,"Cardiac disorders, Grade 4",[1],0 n (%)
same,"Cardiac disorders, Grade 5",[1],0 n (%)
same,"Cardiac disorders, Missing or Unknown",[1],0 n (%)
same,"Cardiac disorders, Total",[1],1 (6.7) n (%)
same,"Constipation, Grade 1",[1],2 (13.3) n (%)
same,"Constipation, Grade 2",[1],0 n (%)
same,"Constipation, Grade 3",[1],0 n (%)
same,"Constipation, Grade 4",[1],0 n (%)
same,"Constipation, Grade 5",[1],0 n (%)
same,"Constipation, Missing or Unknown",[1],0 n (%)
same,"Constipation, Total",[1],2 (13.3) n (%)
same,"Decreased appetite, Grade 1",[1],1 (6.7) n (%)
same,"Decreased appetite, Grade 2",[1],0 n (%)
same,"Decreased appetite, Grade 3",[1],0 n (%)
same,"Decreased appetite, Grade 4",[1],0 n (%)
same,"Decreased appetite, Grade 5",[1],0 n (%)
same,"Decreased appetite, Missing or Unknown",[1],0 n (%)
same,"Decreased appetite, Total",[1],1 (6.7) n (%)
same,"Dizziness, Grade 1",[1],1 (6.7) n (%)
same,"Dizziness, Grade 2",[1],0 n (%)
same,"Dizziness, Grade 3",[1],0 n (%)
same,"Dizziness, Grade 4",[1],0 n (%)
same,"Dizziness, Grade 5",[1],0 n (%)
same,"Dizziness, Missing or Unknown",[1],0 n (%)
same,"Dizziness, Total",[1],1 (6.7) n (%)
same,"Electrocardiogram QT prolonged, Grade 1",[1],2 (13.3) n (%)
same,"Electrocardiogram QT prolonged, Grade 2",[1],0 n (%)
same,"Electrocardiogram QT prolonged, Grade 3",[1],1 (6.7) n (%)
same,"Electrocardiogram QT prolonged, Grade 4",[1],0 n (%)
same,"Electrocardiogram QT prolonged, Grade 5",[1],0 n (%)
same,"Electrocardiogram QT prolonged, Missing or Unknown",[1],0 n (%)
same,"Electrocardiogram QT prolonged, Total",[1],3 (20.0) n (%)
same,"Fatigue, Grade 1",[1],1 (6.7) n (%)
same,"Fatigue, Grade 2",[1],0 n (%)
same,"Fatigue, Grade 3",[1],0 n (%)
same,"Fatigue, Grade 4",[1],0 n (%)
same,"Fatigue, Grade 5",[1],0 n (%)
same,"Fatigue, Missing or Unknown",[1],0 n (%)
same,"Fatigue, Total",[1],1 (6.7) n (%)
same,"Gamma-glutamyl transferase increased, Grade 1",[1],1 (6.7) n (%)
same,"Gamma-glutamyl transferase increased, Grade 2",[1],0 n (%)
same,"Gamma-glutamyl transferase increased, Grade 3",[1],0 n (%)
same,"Gamma-glutamyl transferase increased, Grade 4",[1],0 n (%)
same,"Gamma-glutamyl transferase increased, Grade 5",[1],0 n (%)
same,"Gamma-glutamyl transferase increased, Missing or Unknown",[1],0 n (%)
same,"Gamma-glutamyl transferase increased, Total",[1],1 (6.7) n (%)
same,"Gastrointestinal disorders, Grade 1",[1],4 (26.7) n (%)
same,"Gastrointestinal disorders, Grade 2",[1],0 n (%)
